Source: patent US8334261B2, “Osteopenia animal model” (Oriental Yeast Co., Ltd., priority 2006, dated 2012)

Key:
[1] = test system: GST-RANKL-administered 7-week-old female C57BL/6N mice; assay: Evaluation of an osteoporosis therapeutic agent (risedronate) with GST-RANKL-administered mice; format: in vivo, mouse
Experimental: GST-RANKL (426 nmol) was intraperitoneally administered 3 times to groups of 7-week-old female C57BL/6N mice (5 to 6 individuals each) every 24 hours. An osteoporosis therapeutic agent (risedronate) was subcutaneously administered at 0.01 mg/kg every 24 hours from 3 days before GST-RANKL administration. Administration of the agent was continued to the end of the experimentation every 24 hours. The serum, femur, and tibia were collected from each mouse 1.5 hours after the 3rd administration of GST-RANKL. Bone resorption parameters (calcium, CTx, and TRAP-5b) and osteogenesis parameters (osteocalcin and ALP) in the serum were measured. The femur bone density was determined with the use of pQCT and micro CT. Measurement values were compared with those for a control group by the Dunnett method for testing.

[2] = test system: 7-week-old female C57BL/6N mice; assay: Tibial bone morphology measurement after GST-RANKL 2 mg/kg; format: in vivo, mouse; conditions: 2 mg/kg i.p. 3 times
Experimental: GST-RANKL was intraperitoneally administered 3 times to groups of 7-week-old female C57BL/6N mice at 2 mg/kg every 24 hours, followed by dissection. The tibia of each mouse was subjected to toluidine blue staining and morphology measurement. A solvent (PBS) was administered to the control group in the same manner as above. The GST-RANKL intraperitoneal administration group was subjected to tibial bone morphology measurement. The unit bone mass (BV/TV), the trabecular width (Tb.Th), and the trabecular number (Tb.N) decreased by approximately 30% (p<0.03), approximately 10% (P<0.03), and approximately 20% (p<0.05), respectively, compared with those for the control group (FIGS. 29 to 31). In addition, the osteoid thickness (O.Th), the eroded surface area (ES/BS), the osteoclast number (N.Oc/B.Pm), and the osteoclast surface area (Oc.S/BS) increased, respectively, to approximately 1.2-fold (p<0.04), approximately 1.8-fold (p<0.001), approximately 1.9-fold (p<0.001), and approximately 1.8-fold (p<0.001) as high as those for the control group (FIGS. 32 to 35). In addition, the sections obtained in this Example were subjected to TRAP staining. […] That is, the osteopenia mechanism induced by GST-RANKL administration involves promotion of bone resorption, but not reduction in osteogenesis. However, the aforementioned coupling phenomenon causes promotion of osteogenesis depending on the GST-RANKL dose, the number of doses, and the period of time elapsed after administration, which might results in an increase in the osteoblast surface area.

[3] = test system: GST-RANKL-administered 7-week-old female C57BL/6 mice; assay: Drug evaluation with bisphosphonate (risedronate) in GST-RANKL mice; format: in vivo, mouse; conditions: for femur bone density decrease vs PBS group: RANKL alone
Experimental: Risedronate was separately administered via a subcutaneous route to groups of 7-week-old female C57BL/6 mice at doses of 3, 10, and 30 μg/kg every 24 hours from the day before GST-RANKL administration to the end of the experimentation. The femur and serum were collected from each mouse 1.5 hours after the 3rd administration of GST-RANKL. Measurement of TRAP-5b, calcium (Ca), and alkaline phosphatase (ALP) was carried out. Each femur was subjected to bone density measurement and image analysis with the use of pQCT.

[4] = test system: 7-week-old female ICR mice; assay: Evaluation of mice of the other lineages (ICR); format: in vivo, mouse
Experimental: GST-RANKL was intraperitoneally administered 3 times to groups of 7-week-old female ICR mice at 1 mg/kg every 24 hours. The femur and serum were collected from each mouse 1.5 hours after the 3rd administration and compared with those of the PBS administration group. Regarding bone metabolism markers, TRAP-5b, calcium (Ca), and alkaline phosphatase (ALP) in the serum were measured. Each femur was subjected to bone density measurement with pQCT and image analysis with micro CT.

[5] = test system: 7-week-old female C57BL/6N mice; assay: Single-dose administration of GST-RANKL; format: in vivo, mouse; conditions: for femur bone density decrease vs control: single dose
Experimental: The bone resorption markers and the osteogenesis markers in the serum were measured 12, 24, and 48 hours thereafter. Blood sampling was carried out before and immediately after GST-RANKL administration and 2, 4, 8, 12, 24, 48, and 72 hours after administration, followed by measurement of the serum human RANKL concentration by ELISA. In addition, 24 and 48 hours after administration, the femur bone density was measured with pQCT.

[6] = test system: 8-week-old female C57BL/6N mice; assay: Administration of GST-RANKL to mouse calvaria; format: in vivo; conditions: 3 days
Experimental: GST-RANKL was administered to the calvaria of groups of 8-week-old female C57BL/6N mice for 3 days. The femur was collected from each mouse on day 5 day after the initiation of experimentation. The femur bone density was evaluated with pQCT. Experimentation was conducted with the use of the following three experimental groups: the experimental group 1 subjected to administration of GST-RANKL at 0.5 mg/kg twice daily; the experimental group 2 subjected to administration of GST-RANKL at 1 mg/kg once daily; and the PBS group serving as a control group for comparison and being subjected to PBS administration. Cancellous bone density measurement was carried out at points 0.6 mm, 0.8 mm, and 1.0 mm from the distal growth plate on the proximal side of the collected femur with pQCT.

[7] = GST-RANKL 426 nmol i.p. 3 times

GST-RANKL: fused protein of Glutathione S-transferase with human RANKL residues 140-317, expressed in Escherichia coli, 47.0 kDa
serum alkaline phosphatase concentration vs control ([1]; GST-RANKL 426 nmol): did not change | serum osteocalcin concentration vs control ([1]; GST-RANKL 426 nmol): did not change | serum CTx concentration, fold as high as control [1, 7]: approximately 1.4 fold | serum TRAP-5b concentration, fold as high as control [1, 7]: approximately 1.5 fold | femur bone density decrease vs control ([1]; GST-RANKL 426 nmol, at 0.6 mm, 0.8 mm and 1.0 mm): approximately 20% | osteoblast surface area [2]: no increase | eroded surface area (ES/BS), fold as high as control ([2]; tibia): approximately 1.8 fold | osteoclast number (N.Oc/B.Pm), fold as high as control ([2]; tibia): approximately 1.9 fold | osteoclast surface area (Oc.S/BS), fold as high as control ([2]; tibia): approximately 1.8 fold | osteoid thickness (O.Th), fold as high as control ([2]; tibia): approximately 1.2 fold | trabecular number (Tb.N) decrease vs control ([2]; tibia): approximately 20% | trabecular width (Tb.Th) decrease vs control ([2]; tibia): approximately 10% | unit bone mass (BV/TV) decrease vs control ([2]; tibia): approximately 30% | osteoclast number by TRAP staining ([2]; tibia sections): greater than that for the control group | serum Ca concentration ([3]; GST-RANKL 3 times): did not obviously vary | serum TRAP-5b concentration, fold as high ([3]; RANKL administration): approximately 2 fold | femur bone density decrease vs PBS group ([3]; 0.6 mm): 27% | femur bone density decrease vs PBS group ([3]; 0.8 mm): 35% | femur bone density decrease vs PBS group ([3]; 1.0 mm): 35% | serum ALP concentration ([4]; 1 mg/kg i.p. 3 times): no changes | serum Ca concentration vs control ([4]; 1 mg/kg i.p. 3 times): no changes | serum TRAP-5b concentration, fold as high as PBS group ([4]; 1 mg/kg i.p. 3 times): 1.8 fold | femur bone density decrease vs control ([4]; 1.0 mm): approximately 20% | femur bone density decrease vs control ([4]; 1.2 mm): approximately 20% | femur bone density decrease vs control ([4]; 1.4 mm): approximately 22% | serum ALP concentration decrease ([5]; single dose 1 mg/kg): approximately 30% | serum Ca concentration ([5]; single dose 1 mg/kg i.p.): no changes | serum human RANKL concentration ([5]; single dose 1 mg/kg i.p., 24 hours later): undetectable | time of peak serum human RANKL concentration after administration ([5]; single dose 1 mg/kg i.p., ELISA): 4 h | serum TRAP-5b concentration, fold as high as control ([5]; single dose 1 mg/kg, 12 hours after administration): approximately 1.7 fold | femur bone density decrease vs control ([5]; 24 hours, 0.6 mm): approximately 4% | femur bone density decrease vs control ([5]; 24 hours, 0.8 mm): approximately 9% | femur bone density decrease vs control ([5]; 24 hours, 1.0 mm): approximately 12% | femur bone density decrease vs control ([5]; 48 hours, 0.6 mm): approximately 5% | femur bone density decrease vs control ([5]; 48 hours, 0.8 mm): approximately 9% | femur bone density decrease vs control ([5]; 48 hours, 1.0 mm): approximately 15% | femur cancellous bone density vs PBS group ([6]; experimental group 1: 0.5 mg/kg twice daily to the calvarium, at the measurement points): bone density decrease was observed | femur cancellous bone density vs PBS group ([6]; experimental group 2: 1 mg/kg once daily to the calvarium, at 0.8 mm and 1.0 mm): bone density decrease was observed
